The subject of this experiment is Intracellular Adenosine. The format is in vivo, rat.

The structures appear in SMILES notation.

As for `Nc1nc(=O)c2c([nH]1)NCC(CNc1ccc(C(=O)N[C@@H](CCC(=O)O)C(=O)O)cc1)N2C=O` (mixture of isomers) [Follinic Acid (F.A.), folinic acid], the “Adenosine levels in the heart, lung and brain” value (rat, in vivo, po) is “dramatic increase in adenosine levels”. In addition, where the note is “rats, co-administered with the depleting agent”, the “Effect of co-administration of folinic acid on adenosine depletion” value is “completely abrogated adenosine depletion”. Also, the “Effect of folinic acid administered alone on adenosine levels” value (rats, folinic acid alone, all organs studied) is listed as “increase in adenosine levels for all organs studied”.

The record behind these values is patent publication US20030181353A1, “Composition & use as analgesic, anti-inflammatory, wound healing agent, for treatment of heart conditions, assessment of heart function & tissue & cell protection & healing & reperfusion, mood disorders & symptoms & sequelae of menopause & for inducing unconsciousness, sleep & anesthesia” (priority 1998, published 2003).
